Structures are written as SMILES.

These results are taken from patent US10322098B2, “Composition for use in the treatment of intervertebral disc-related pain” (STAYBLE THERAPEUTICS AB, priority 2014, dated 2019).

Series [1] is described as follows: Tolerability of intradiscal injection in pigs (behaviour, injection site by the naked eye). Type of series: in vivo, pig. The settings on record: two pigs. The method, then:
Two pigs were anesthetized and placed on their right side. Access to the L4-5 intervertebral disc was obtained through a lateral incision between the lowest rib and the iliac crest on the left side of each pig. Thereafter, the L3-4 intervertebral disc was incised with a scalpel.
The composition was injected in a single step at a single occasion.
At harvest, the pigs were killed.
The injection site was observed by the naked eye. […] The segment of the vertebral column extending from the lumbar vertebra L2 to the sacral vertebra S1 was removed. The facet joints were removed, thus allowing full flexibility of the discs with no restraints from other structures.

Series [2] deals with disc space of the L3-4 intervertebral disc. The experiment in a line: Dimension of the disc space after local injection into the nucleus pulposus in a pig. The settings on record: injected L3-4 disc compared with non-injected L2-3 and L4-5; FIG. 7. The series is classed as in vivo. The procedure: 110. performing a cross-section of the discs and measuring the length (anterio-posterior direction) and the width (bilateral direction) of the disc space. Two pigs were anesthetized and placed on their right side. Access to the L4-5 intervertebral disc was obtained through a lateral incision between the lowest rib and the iliac crest on the left side of each pig. Thereafter, the L3-4 intervertebral disc was incised with a scalpel. […] The composition was injected in a single step at a single occasion. The intervertebral discs (L2-3, L3-4, L4-5) were cross-sectioned and the length of the disc space (anterio-posterior direction) and the width (bilateral direction) of the disc space were measured by calipers. In FIGS. 5 and 6, an intervertebral disc is schematically shown in cross-section. The intervertebral disc comprises the annulus fibrosus 10, and a disc space defined by the annulus fibrosus and comprising the nucleus pulposus 11.

In the case of `CC(O)C(=O)O` (stereo not drawn) [lactic acid], in series [1] (0.2 mL of 1.34 mol/L into L3-4 nucleus pulposus, period of seven days until harvest), the “Adverse reaction such as decreased mobility or vocalization” value was “no adverse reaction”. Also, the “Adverse reaction at the injection site, such as bleedings, inflammation or necrosis” value in series [1] (observed by the naked eye at harvest, seven days) is “No adverse reaction”. Also, the “Observation of the cross-sectioned disc space by the naked eye” value in series [2] was “newly formed connective tissue in the disc space”.
